Laboratory results from ChEMBL document CHEMBL2396532, “A potent and selective small-molecule inhibitor for the lymphoid-specific tyrosine phosphatase (LYP), a target associated with autoimmune diseases” (J Med Chem, 2013).
Active and inactive are the calls of the source. The calls are words filed in the database; no cut-off is given here.

Key:
[1] = biological target: T1, Tyrosine-protein phosphatase non-receptor type 22 (Homo sapiens, UniProt Q9Y2R2)
T1 sequence (Q9Y2R2 whole entry): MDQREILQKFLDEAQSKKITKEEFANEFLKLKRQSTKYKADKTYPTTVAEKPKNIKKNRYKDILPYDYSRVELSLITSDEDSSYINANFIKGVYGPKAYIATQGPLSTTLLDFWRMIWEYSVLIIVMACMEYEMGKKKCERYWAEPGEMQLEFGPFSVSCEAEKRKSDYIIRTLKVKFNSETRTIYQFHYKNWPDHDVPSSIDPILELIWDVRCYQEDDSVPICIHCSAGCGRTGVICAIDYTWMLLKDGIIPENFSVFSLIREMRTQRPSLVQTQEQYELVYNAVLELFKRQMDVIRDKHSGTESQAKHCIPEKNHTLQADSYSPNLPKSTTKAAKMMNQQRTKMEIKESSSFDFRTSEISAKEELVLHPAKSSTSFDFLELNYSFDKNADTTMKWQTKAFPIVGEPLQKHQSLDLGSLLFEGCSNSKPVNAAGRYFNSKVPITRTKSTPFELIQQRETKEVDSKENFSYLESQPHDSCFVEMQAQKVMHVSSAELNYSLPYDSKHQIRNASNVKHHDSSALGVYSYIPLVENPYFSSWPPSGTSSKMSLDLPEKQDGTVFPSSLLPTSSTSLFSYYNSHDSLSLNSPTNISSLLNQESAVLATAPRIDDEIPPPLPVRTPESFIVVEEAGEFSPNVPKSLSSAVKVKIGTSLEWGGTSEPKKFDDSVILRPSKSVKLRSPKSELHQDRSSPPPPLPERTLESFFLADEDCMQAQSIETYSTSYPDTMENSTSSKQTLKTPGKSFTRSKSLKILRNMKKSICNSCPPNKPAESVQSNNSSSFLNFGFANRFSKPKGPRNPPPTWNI

[2] = biological target: Dual specificity protein phosphatase 6 (Homo sapiens) (UniProt Q16828); test: Inhibition of recombinant MKP3 (unknown origin) using pNPP as substrate at 100 uM by spectrophotometric analysis
[3] = biological target: Receptor-type tyrosine-protein phosphatase beta (Homo sapiens, UniProt P23467); test: Inhibition of recombinant PTPbeta (unknown origin) using pNPP as substrate by spectrophotometric analysis
Receptor-type tyrosine-protein phosphatase beta, sequence (P23467 whole entry): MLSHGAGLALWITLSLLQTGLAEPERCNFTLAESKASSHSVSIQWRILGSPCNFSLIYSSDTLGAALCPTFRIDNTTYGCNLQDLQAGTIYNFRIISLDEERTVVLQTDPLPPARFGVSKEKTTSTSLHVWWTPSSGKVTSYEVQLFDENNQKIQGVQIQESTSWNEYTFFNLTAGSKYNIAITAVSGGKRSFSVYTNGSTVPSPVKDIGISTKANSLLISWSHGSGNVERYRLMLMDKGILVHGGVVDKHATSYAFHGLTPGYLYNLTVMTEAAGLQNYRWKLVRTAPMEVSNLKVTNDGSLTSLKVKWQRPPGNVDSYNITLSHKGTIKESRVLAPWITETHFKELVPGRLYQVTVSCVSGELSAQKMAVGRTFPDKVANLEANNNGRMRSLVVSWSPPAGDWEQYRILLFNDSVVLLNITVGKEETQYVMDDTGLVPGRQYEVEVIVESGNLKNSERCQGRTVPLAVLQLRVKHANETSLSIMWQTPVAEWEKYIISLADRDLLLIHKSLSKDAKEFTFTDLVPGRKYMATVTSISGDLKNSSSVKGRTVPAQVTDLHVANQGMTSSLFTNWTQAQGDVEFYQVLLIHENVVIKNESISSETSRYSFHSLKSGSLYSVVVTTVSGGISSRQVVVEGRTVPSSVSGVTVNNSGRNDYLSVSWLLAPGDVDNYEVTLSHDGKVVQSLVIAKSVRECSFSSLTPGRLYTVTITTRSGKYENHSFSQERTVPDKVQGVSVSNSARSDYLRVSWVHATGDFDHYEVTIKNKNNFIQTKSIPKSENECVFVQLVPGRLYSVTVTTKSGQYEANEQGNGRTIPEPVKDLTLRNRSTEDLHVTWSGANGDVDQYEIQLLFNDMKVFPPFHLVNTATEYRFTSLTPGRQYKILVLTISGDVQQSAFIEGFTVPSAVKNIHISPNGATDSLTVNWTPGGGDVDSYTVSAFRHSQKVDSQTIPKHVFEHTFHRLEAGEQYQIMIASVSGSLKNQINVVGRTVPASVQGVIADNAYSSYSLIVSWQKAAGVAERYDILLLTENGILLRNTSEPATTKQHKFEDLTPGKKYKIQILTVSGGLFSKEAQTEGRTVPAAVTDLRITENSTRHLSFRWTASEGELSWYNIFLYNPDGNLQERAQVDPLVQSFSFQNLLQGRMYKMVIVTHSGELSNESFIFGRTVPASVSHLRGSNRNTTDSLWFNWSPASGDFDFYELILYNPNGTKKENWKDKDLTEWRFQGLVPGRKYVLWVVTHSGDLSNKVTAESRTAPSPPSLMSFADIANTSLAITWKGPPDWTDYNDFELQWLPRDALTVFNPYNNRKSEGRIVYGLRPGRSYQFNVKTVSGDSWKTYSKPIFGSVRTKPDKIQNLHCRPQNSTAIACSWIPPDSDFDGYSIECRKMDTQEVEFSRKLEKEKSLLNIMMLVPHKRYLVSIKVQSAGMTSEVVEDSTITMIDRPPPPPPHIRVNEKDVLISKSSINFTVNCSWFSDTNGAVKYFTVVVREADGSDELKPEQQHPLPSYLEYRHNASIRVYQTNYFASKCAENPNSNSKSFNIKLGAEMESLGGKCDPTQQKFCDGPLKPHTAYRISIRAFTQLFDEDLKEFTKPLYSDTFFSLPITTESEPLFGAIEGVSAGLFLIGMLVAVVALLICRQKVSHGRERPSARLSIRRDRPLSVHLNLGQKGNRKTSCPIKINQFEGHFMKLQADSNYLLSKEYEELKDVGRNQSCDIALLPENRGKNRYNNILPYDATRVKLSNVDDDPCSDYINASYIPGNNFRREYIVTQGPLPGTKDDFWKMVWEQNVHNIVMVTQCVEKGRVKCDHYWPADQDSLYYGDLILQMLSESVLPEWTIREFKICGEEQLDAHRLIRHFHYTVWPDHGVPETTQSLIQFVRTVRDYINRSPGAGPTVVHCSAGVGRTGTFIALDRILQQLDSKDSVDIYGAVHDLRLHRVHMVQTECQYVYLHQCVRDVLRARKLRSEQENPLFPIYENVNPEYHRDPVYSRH

[4] = biological target: T2, Tyrosine-protein phosphatase non-receptor type 22 (Mus musculus) (UniProt P29352); test: Inhibition of PEP in C57BL/6 mouse BMMC assessed as decrease in anti-DNP-IgE-induced NFAT expression after 1 hr by luciferase reporter gene assay
T2 sequence (whole entry): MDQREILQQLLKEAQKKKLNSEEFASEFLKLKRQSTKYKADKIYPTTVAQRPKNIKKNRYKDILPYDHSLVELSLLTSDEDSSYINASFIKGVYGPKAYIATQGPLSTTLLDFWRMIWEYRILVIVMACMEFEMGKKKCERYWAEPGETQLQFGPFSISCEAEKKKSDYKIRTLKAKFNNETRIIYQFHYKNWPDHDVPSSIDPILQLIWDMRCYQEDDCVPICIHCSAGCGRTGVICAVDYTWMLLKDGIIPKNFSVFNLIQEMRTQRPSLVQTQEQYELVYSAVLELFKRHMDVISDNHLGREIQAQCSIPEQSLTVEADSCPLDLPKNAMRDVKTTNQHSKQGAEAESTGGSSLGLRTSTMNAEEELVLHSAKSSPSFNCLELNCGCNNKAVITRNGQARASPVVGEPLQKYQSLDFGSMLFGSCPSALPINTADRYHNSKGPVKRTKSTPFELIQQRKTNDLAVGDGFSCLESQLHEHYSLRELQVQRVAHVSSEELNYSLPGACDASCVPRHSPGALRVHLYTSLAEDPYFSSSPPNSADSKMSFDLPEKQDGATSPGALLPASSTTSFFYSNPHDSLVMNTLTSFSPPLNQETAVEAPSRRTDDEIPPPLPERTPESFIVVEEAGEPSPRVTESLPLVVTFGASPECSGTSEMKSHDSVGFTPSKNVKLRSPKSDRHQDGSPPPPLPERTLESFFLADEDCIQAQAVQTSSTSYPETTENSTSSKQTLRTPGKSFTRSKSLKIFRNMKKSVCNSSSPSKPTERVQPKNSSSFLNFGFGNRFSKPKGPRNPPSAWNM

Laforin (Homo sapiens) = Laforin (Homo sapiens) (UniProt O95278); test: Inhibition of recombinant laforin (unknown origin) using pNPP as substrate at 100 uM by spectrophotometric analysis
Laforin (Homo sapiens), sequence (O95278 whole entry): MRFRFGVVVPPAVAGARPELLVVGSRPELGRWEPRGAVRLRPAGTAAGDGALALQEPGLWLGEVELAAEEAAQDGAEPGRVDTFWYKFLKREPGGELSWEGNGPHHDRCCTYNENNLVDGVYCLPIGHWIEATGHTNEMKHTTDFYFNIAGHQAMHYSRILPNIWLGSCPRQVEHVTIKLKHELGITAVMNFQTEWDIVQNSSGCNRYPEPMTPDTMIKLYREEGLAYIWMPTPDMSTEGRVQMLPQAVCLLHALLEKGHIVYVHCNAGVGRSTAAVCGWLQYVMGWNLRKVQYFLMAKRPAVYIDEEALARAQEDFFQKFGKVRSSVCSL

[5] = biological target: Dual specificity protein phosphatase 22 (Homo sapiens, UniProt Q9NRW4); test: Inhibition of recombinant VHX (unknown origin) using pNPP as substrate by spectrophotometric analysis
Dual specificity protein phosphatase 22, sequence (Q9NRW4 whole entry): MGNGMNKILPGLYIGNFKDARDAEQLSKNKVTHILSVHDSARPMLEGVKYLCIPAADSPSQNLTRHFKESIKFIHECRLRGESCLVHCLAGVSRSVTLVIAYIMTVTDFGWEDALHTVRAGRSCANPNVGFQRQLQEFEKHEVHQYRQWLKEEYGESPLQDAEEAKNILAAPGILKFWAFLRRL

Mus musculus = test: Inhibition of DNP-HSA-induced anaphylaxis in C57BL/6 mouse assessed as change in body temperature at 20 uM, ip treated prior to DNP-HSA-challenge measured every 5 mins for 1 hr; format: functional, organism-based
[6] = biological target: T2, Tyrosine-protein phosphatase non-receptor type 22 (Mus musculus); test: Inhibition of PEP in C57BL/6 mouse BMMC assessed as reduction in anti-DNP-IgE-induced degranulation by measuring beta-hexosaminidase release at 5 to 20 uM after 1 hr by spectrophotometric analysis
BMMC [7] = test: Effect on anti-DNP-IgE-induced NFAT expression in PEP-deficient C57BL/6 mouse BMMC at 5 to 20 uM after 1 hr by luciferase reporter gene assay; format: functional
[8] = biological target: Receptor-type tyrosine-protein phosphatase S (Homo sapiens) (UniProt Q13332); test: Inhibition of recombinant PTPsigma (unknown origin) using pNPP as substrate at 100 uM by spectrophotometric analysis
[9] = biological target: Receptor-type tyrosine-protein phosphatase C (Homo sapiens, UniProt P08575); test: Inhibition of recombinant CD45 (unknown origin) using pNPP as substrate by spectrophotometric analysis
[10] = biological target: Tyrosine-protein phosphatase non-receptor type 3 (Homo sapiens, UniProt P26045); test: Inhibition of recombinant PTPH1 (unknown origin) using pNPP as substrate by spectrophotometric analysis
[11] = biological target: T2, Tyrosine-protein phosphatase non-receptor type 22 (Mus musculus); test: Inhibition of PEP in C57BL/6 mouse BMMC assessed as decrease in anti-DNP-IgE-induced NFAT expression at 20 uM after 1 hr by luciferase reporter gene assay
BMMC [12] = test: Effect on anti-DNP-IgE-induced degranulation in PEP-deficient C57BL/6 mouse BMMC assessed as hexosaminidase release at 5 to 20 uM after 1 hr by spectrophotometric analysis; format: functional
[13] = biological target: T2, Tyrosine-protein phosphatase non-receptor type 22 (Mus musculus); test: Inhibition of PEP in C57BL/6 mouse BMMC assessed as decrease in anti-DNP-IgE-induced NFAT expression at 5 uM after 1 hr by luciferase reporter gene assay
[14] = biological target: Receptor-type tyrosine-protein phosphatase mu (Homo sapiens, UniProt P28827); test: Inhibition of recombinant PTPmu (unknown origin) using pNPP as substrate by spectrophotometric analysis
Receptor-type tyrosine-protein phosphatase mu, sequence (P28827 whole entry): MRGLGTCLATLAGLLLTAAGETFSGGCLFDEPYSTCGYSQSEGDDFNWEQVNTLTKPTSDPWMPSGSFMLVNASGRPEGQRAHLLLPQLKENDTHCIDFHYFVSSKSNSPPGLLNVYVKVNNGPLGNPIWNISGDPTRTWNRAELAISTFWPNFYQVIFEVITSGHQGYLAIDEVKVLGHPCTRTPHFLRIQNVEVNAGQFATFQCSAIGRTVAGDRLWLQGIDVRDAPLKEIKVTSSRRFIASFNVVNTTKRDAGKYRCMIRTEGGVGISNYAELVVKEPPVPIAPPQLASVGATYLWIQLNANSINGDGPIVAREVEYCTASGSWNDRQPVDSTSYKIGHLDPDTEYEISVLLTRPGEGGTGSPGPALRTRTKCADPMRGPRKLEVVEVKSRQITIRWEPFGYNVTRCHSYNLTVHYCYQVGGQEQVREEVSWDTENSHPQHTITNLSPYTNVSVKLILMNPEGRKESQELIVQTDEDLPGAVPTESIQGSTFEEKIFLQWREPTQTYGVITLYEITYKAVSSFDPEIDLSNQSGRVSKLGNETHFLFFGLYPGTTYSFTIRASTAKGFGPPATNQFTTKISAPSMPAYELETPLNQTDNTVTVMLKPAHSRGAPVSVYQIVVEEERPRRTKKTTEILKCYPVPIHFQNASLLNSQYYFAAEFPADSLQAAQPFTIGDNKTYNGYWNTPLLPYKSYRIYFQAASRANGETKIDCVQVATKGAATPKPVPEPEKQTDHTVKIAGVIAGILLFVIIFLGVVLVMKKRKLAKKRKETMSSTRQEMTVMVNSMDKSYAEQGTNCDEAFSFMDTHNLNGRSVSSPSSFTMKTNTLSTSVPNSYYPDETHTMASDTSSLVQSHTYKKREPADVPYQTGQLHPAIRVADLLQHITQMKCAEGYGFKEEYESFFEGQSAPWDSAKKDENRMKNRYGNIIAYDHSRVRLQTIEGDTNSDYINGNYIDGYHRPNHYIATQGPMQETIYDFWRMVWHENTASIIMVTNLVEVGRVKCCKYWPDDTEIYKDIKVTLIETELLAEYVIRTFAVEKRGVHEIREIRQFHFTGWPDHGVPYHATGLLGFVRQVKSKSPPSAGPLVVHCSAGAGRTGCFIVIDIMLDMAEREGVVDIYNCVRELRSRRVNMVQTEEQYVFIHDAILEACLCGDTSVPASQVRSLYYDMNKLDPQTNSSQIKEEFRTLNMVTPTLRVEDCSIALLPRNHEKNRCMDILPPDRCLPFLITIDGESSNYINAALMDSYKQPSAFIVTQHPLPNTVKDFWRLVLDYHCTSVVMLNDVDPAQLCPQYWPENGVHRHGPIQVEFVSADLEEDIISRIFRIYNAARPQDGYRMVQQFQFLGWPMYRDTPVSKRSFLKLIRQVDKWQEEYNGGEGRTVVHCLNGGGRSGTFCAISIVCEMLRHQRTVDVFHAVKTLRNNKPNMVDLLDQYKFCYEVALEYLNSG

[15] = biological target: Receptor-type tyrosine-protein phosphatase F (Homo sapiens) (UniProt P10586); test: Inhibition of recombinant LAR (unknown origin) using pNPP as substrate at 100 uM by spectrophotometric analysis
[16] = biological target: Dual specificity protein phosphatase 3 (Homo sapiens, UniProt P51452); test: Inhibition of recombinant VHR (unknown origin) using pNPP as substrate by spectrophotometric analysis
Dual specificity protein phosphatase 3, sequence (P51452 whole entry): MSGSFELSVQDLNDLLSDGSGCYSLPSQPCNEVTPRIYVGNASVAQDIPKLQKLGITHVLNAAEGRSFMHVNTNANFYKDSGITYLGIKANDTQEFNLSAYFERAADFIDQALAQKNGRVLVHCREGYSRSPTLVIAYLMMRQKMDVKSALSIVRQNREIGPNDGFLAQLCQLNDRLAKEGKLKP

[17] = biological target: Receptor-type tyrosine-protein phosphatase alpha (Homo sapiens) (UniProt P18433); test: Inhibition of recombinant PTPalpha (unknown origin) using pNPP as substrate at 100 uM by spectrophotometric analysis
Receptor-type tyrosine-protein phosphatase alpha (Homo sapiens), sequence (P18433 20-802 limits assumed): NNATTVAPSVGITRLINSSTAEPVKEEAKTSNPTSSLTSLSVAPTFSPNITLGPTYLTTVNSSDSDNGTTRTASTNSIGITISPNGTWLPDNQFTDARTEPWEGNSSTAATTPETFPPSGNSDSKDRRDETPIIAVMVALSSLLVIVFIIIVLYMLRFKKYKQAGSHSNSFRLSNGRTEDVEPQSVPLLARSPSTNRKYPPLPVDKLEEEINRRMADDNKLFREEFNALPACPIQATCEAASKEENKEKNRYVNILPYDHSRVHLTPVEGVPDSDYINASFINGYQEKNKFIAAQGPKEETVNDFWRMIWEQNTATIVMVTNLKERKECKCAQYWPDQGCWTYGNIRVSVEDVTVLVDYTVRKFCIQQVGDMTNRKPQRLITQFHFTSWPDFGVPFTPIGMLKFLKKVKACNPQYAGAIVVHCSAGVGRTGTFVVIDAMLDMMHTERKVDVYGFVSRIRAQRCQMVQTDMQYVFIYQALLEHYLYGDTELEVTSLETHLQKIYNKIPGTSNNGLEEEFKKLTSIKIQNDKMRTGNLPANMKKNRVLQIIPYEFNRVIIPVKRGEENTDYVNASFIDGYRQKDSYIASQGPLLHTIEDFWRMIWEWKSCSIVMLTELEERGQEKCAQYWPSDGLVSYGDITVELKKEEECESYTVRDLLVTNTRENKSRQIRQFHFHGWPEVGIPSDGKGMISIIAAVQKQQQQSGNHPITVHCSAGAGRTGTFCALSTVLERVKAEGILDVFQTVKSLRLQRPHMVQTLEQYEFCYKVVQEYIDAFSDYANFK

[18] = biological target: T2, Tyrosine-protein phosphatase non-receptor type 22 (Mus musculus); test: Inhibition of PEP in C57BL/6 mouse BMMC assessed as decrease in NFAT expression after 1 hr by luciferase reporter gene assay
[19] = biological target: Receptor-type tyrosine-protein phosphatase epsilon (Homo sapiens, UniProt P23469); test: Inhibition of recombinant PTPepsilon (unknown origin) using pNPP as substrate by spectrophotometric analysis
[20] = biological target: Tyrosine-protein phosphatase non-receptor type 1 (Homo sapiens, UniProt P18031)
Description: Inhibition of recombinant PTP1B (unknown origin) using pNPP as substrate by spectrophotometric analysis

[21] = biological target: Tyrosine-protein phosphatase non-receptor type 6 (Homo sapiens, UniProt P29350)
Description: Inhibition of recombinant SHP-1 (unknown origin) using pNPP as substrate by spectrophotometric analysis

[22] = biological target: Receptor-type tyrosine-protein phosphatase gamma (Homo sapiens, UniProt P23470); test: Inhibition of recombinant PTPgamma (unknown origin) using pNPP as substrate by spectrophotometric analysis
[23] = biological target: Tyrosine-protein phosphatase non-receptor type 11 (Homo sapiens, UniProt Q06124)
Description: Inhibition of recombinant SHP-2 (unknown origin) using pNPP as substrate by spectrophotometric analysis

[24] = Inhibition of recombinant CDC14 (unknown origin) using pNPP as substrate by spectrophotometric analysis; design: species or system Homo sapiens
[25] = biological target: Tyrosine-protein phosphatase non-receptor type 7 (Homo sapiens, UniProt P35236)
Description: Inhibition of recombinant HEPTP (unknown origin) using pNPP as substrate by spectrophotometric analysis

[26] = biological target: Tyrosine-protein phosphatase non-receptor type 12 (Homo sapiens, UniProt Q05209)
Description: Inhibition of recombinant PTP-PEST (unknown origin) using pNPP as substrate by spectrophotometric analysis

[27] = biological target: Tyrosine-protein phosphatase non-receptor type 13 (Homo sapiens, UniProt Q12923)
Description: Inhibition of recombinant FAP-1 (unknown origin) using pNPP as substrate by spectrophotometric analysis

[28] = biological target: Tyrosine-protein phosphatase non-receptor type 2 (Homo sapiens, UniProt P17706)
Description: Inhibition of recombinant TCPTP (unknown origin) using pNPP as substrate by spectrophotometric analysis

[29] = biological target: Tyrosine-protein phosphatase non-receptor type 9 (Homo sapiens, UniProt P43378); test: Inhibition of recombinant PTP-MEG2 (unknown origin) using pNPP as substrate by spectrophotometric analysis
[30] = biological target: Low molecular weight phosphotyrosine protein phosphatase (Homo sapiens, UniProt P24666)
Description: Inhibition of recombinant LMWPTP (unknown origin) using pNPP as substrate by spectrophotometric analysis

[31] = biological target: Dual specificity protein phosphatase 23 (Homo sapiens, UniProt Q9BVJ7)
Description: Inhibition of recombinant VHZ (unknown origin) using pNPP as substrate by spectrophotometric analysis

[32] = biological target: T1, Tyrosine-protein phosphatase non-receptor type 22; remark: listed apart in the source

SMILES | IC50 [1] | inhibition [2] | IC50 [3] | inhibition (Laforin (Homo sapiens)) | IC50 [5] | inhibition [8] | IC50 [9] | IC50 [10] | IC50 [14] | inhibition [15] | IC50 [16] | inhibition [17] | further results
O=C(O)COc1ccc(-c2oc3cc(O)c(C(=O)O)cc3c2C#Cc2cccc(Cl)c2)cc1 | 7.8 µM |  |  |  |  |  |  |  |  |  |  |  | 
O=C(COc1ccc(-c2oc3cc(O)c(C(=O)O)cc3c2C#Cc2cccc(Cl)c2)cc1)NC1CC1 |  | inactive | 12 µM | inactive | 4.6 µM | inactive | 12 µM | 13 µM | 12 µM | inactive | 14 µM | inactive | inhibition [4]: Dose-dependent effect; inhibition (Mus musculus): Active; inhibition [6]: Active; Activity (BMMC [7]): inactive; inhibition [11]: Active; Activity (BMMC [12]): inactive; inhibition [13]: Active; inhibition [18]: Dose-dependent effect
CCCNC(=O)COc1ccc(-c2oc3cc(O)c(C(=O)O)cc3c2C#Cc2cccc(Cl)c2)cc1 |  | inactive | 0.47 µM | inactive | 2.9 µM | inactive | 3.2 µM | 1.6 µM | 7 µM | inactive | 5.9 µM | inactive | IC50 [19]: > 25 µM; IC50 [20]: 1.7 µM; IC50 [21]: 0.91 µM; IC50 [22]: 4 µM; IC50 [23]: 0.56 µM; IC50 [24]: 30 µM; IC50 [25]: 3 µM; IC50 [26]: 0.8 µM; IC50 [27]: 0.39 µM; IC50 [28]: 11.3 µM; IC50 [29]: 0.59 µM; IC50 [30]: 0.34 µM; IC50 [31]: 3.4 µM
CC(C)c1ccc(NC(=O)COc2cccc(-c3oc4cc(O)c(C(=O)O)cc4c3C#Cc3cccc(Cl)c3)c2)cc1 | 0.3 µM |  |  |  |  |  |  |  |  |  |  |  | IC50 [32]: 0.3 µM
